Legend:
[1] = tested on: B-CPAP thyroid cancer cell line; assay: MTT cell viability assay; format: cell-based; settings: Homo sapiens, BCPAP; B-CPAP; MTT, 24 h; concentration required to inhibit cell proliferation by 50%; mean ± SD; read-out: CC50
Protocol: (§1) The cytotoxic effect of coumarins 2a–k was tested on several cancer and normal cell lines: lung cancer cell line (SK-MES-1), thyroid cancer cell lines (K-1; B-CPAP ant TPC-1), lung fibroblast (MRC-5) and thyroid normal cell line (Nthy-ori-3-1) by MTT (3-[4,5-dimethylthiazol-2-yl]-2,5 diphenyltetrazolium bromide) assay.
(§2) The papillary thyroid carcinoma (PTC)-derived cell lines (TPC-1 and B-CPAP) were kindly provided by Dr. Fusco (Medical School, University Federico II of Naples, Naples, Italy). K-1 PTC-derived cell line and non-tumorigenic thyroid Nthy-ori-3-1 cell line were purchased from Health Protection Agency Culture Collections. The PTC-derived cell lines were maintained in DMEM/F12 (Gibco-BRL. Life Technologies, Milan, Italy)] supplemented with 10% fetal bovine serum (Gibco-BRL) at 37 °C in humidified 5% CO2. SK-MES-1 and MRC-5 were purchased from American Type Culture Collection (ATCC) and were maintained in Mem-E medium, supplemented with 10% fetal bovine serum, 100 units/mL penicillin G, and 100 μg/mL streptomycin (Gibco-BRL) at 37 °C in humidified 5% CO2.
(§3) The effect of test compounds on the viability of cells was detected by MTT assay. The thyroid cells (7.5 × 10^3 cells/mL), SK-MES-1, and MRC-5 (8 × 10^4 cells/mL) were seeded into a 96-well plate and allowed to adhere for 16 h to culture plates before the addition of the compounds.
(§4) Then, compounds were added at different concentrations (0.8–100 μM), and cells were further incubated for 24 h. Cells with no treatment were used as a negative control. After incubation, cells were treated with MTT solution for 3 h at 37 °C. Then, the MTT solution was removed, and 150 µL of DMSO was added to the wells. The absorbances were measured at 570 nm using a TECAN microplate reader (Infinite 200, Tecan, Salzburg, Austria). Viability data were reported as % of control (untreated cells) for each cell line.

[2] = MTT cell viability assay; format: cell-based; settings: human, MTT, 24 h, concentration required to inhibit cell proliferation by 50%, mean ± SD
Protocol: as §1, §2, §3, §4

[3] = tested on: K-1 thyroid cancer cell line; assay: MTT cell viability assay; format: cell-based; settings: K-1; MTT, 24 h; concentration required to inhibit cell proliferation by 50%; mean ± SD; read-out: CC50
Protocol: as §1, §2, §3, §4

[4] = tested on: SK-MES-1 lung cancer cell line; assay: MTT cell viability assay; format: cell-based; settings: Homo sapiens; SK-MES-1; MTT, 24 h; concentration required to inhibit cell proliferation by 50%; mean ± SD; read-out: CC50
Protocol: as §1, §2, §3, §4

[5] = tested on: TPC-1 thyroid cancer cell line; assay: MTT cell viability assay; format: cell-based; settings: Homo sapiens, TPC1; TPC-1; MTT, 24 h; concentration required to inhibit cell proliferation by 50%; mean ± SD; read-out: CC50
Protocol: as §1, §2, §3, §4

[6] = tested on: TPC-1 cells; assay: Intracellular ROS production (H2-DCF-DA probe); format: cell-based; settings: 20 and 100 μM, 30 to 120 min
Protocol: (§5) It has been reported that coumarins and their derivatives are able to regulate the reactive oxygen species (ROS). For example, esculetin induces cytotoxicity in pancreatic cancer cells decreasing ROS and protein levels of the ROS-dependent transcription factor NF-κB [49]. On the other end, coumarins induce the generation and accumulation of ROS in cancer cells causing cell cycle arrest and apoptotic cell death. […] Conversely, 2h produces an antiproliferative response in TPC-1 cells by scavenging ROS. In an attempt of a better understanding of the results, such compounds were explored from an electrochemical point of view by means of cyclic voltammetry in anhydrous acetonitrile.
(§6) PTC-derived and control cells were seeded in 96-well plates (7.5 × 10^3/mL) to detect intracellular ROS production and grown for 24 h. Cells were then washed with PBS 1X solution and incubated for 30 min with 2′,7′-dichlorofluorescein diacetate probe (H2-DCF-DA) (Merck, Milan, Italy) (10 μM), as previously described. […] After 1 h of incubation, excess H2-DCF-DA was removed and replaced with PBS, and then ROS levels were measured by using a microplate reader (Infinite 200, Tecan, Salzburg, Austria) at a controlled temperature of 37 °C. The measurement was performed using an excitation of 490 nm and an emission of 520 nm. ROS production was evaluated for 2 h and monitored, taking readings at intervals of 5 min.

[7] = tested on: Nthy-ori-3-1 cells; assay: Intracellular ROS production (H2-DCF-DA probe); format: cell-based; settings: only with 100 μM
Protocol: as §5, §6

[8] = Cyclic voltammetry in anhydrous acetonitrile; format: physicochemical; settings: 100 mV s−1, Pt pseudo-reference (Fc+/0 at +0.45 V)
Protocol: as §5
The electrochemical properties of compounds 2h and 2k were investigated by cyclic voltammetry (CV) technique under an inert atmosphere. The measurements have been carried out at 100 mV s^−1 with a three-electrode cell using a platinum tip as a working electrode, a platinized titanium net as a counter electrode, and a platinum wire as a pseudo-reference electrode. The electrochemical measurements were performed at room temperature using an AUTOLAB PGSTAT302N (Metrohm, Herisau, Switzerland) potentiostat/galvanostat controlled with the NOVA software. All the solutions were prepared in anhydrous degassed acetonitrile with 0.1 M [n-Bu4N][PF6] as supporting electrolyte: in this condition, the Fc^+/0 redox couple is centered at +0.45 V.

[9] = tested on: Nthy-ori-3-1 normal thyroid cells; assay: Annexin V-FITC/PI apoptosis assay by flow cytometry; format: cell-based; settings: 20 μM, 24 h
Protocol: To determine whether the two studied coumarins 2k and 2h, induce cell death through apoptosis or necrosis, we performed double staining with fluorescent Annexin V-FITC/propidium iodide (PI) apoptosis detection kit in TPC-1 and Nthy-ori-3-1 as control cells. This assay is based on the ability of Annexin to recognize phosphatidylserine (PS), a membrane phospholipid exposed on the cell surface of apoptotic cells, while PI is able to bind the DNA of necrotic cells. Thanks to this combination, […] cell populations are obtained: cells negative for Annexin V-FITC and PI indicate live cells, Annexin V-FITC-positive/PI-negative and Annexin V-FITC-positive/PI-positive indicate early and late apoptotic cells, while cells negative for Annexin V-FITC and PI-positive are necrotic.
To investigate cell death induced by coumarins treatment, a flow cytometric analysis using the cell apoptosis kit Annexin V/propidium iodide (PI) double staining uptake (Life Technologies, Monza, Italy) was employed. Control and PTC-derived cells, at the density of 5 × 10^4 cells/mL, were seeded in 6-well plates (Corning) with complete DMEM/F12. First, the cells were treated with 20 µM of coumarins for 24 h. Cells were washed once with PBS 1X and stained according to the kit’s protocol. Stained cells were then analyzed by flow cytometry, measuring the fluorescence emission at 530 and 620 nm using a 488 nm excitation laser (MoFloAstrios EQ, Beckman Coulter). Cell apoptosis was analyzed using Software Summit Version 6.3.1.1, Beckman Coulter.

[10] = Nthy-ori-3-1 normal thyroid cells, Nthy-ori-3-1

For `N#Cc1cc2cc(Br)cc(Br)c2oc1=O` [2h, 6,8-dibromo-2-oxo-2H-chromene-3-carbonitrile], the CC50 [1] was greater than 100 µM, the CC50 at 24 h ([2]; MRC-5 lung fibroblasts, MRC-5) was greater than 100 µM and the CC50 at 24 h [2, 10] was greater than 100 µM. It also gave a CC50 [3] of 60 ± 3 µM, a CC50 [4] greater than 100 µM and a CC50 [5] of 90 ± 3.5 µM. The ROS generation [6] was “decreased ROS generation”, the “effect on ROS” value [7] was “antioxidant” and the oxidation peak potential [8] was 0.6 V. For the same molecule, the reduction feature potential [8] was −1.02 V and the induction of apoptosis [9] was “No significant induction of apoptosis”.
For `N#Cc1cc2cc(I)cc(I)c2oc1=O` [2k, 6,8-diiodo-2-oxo-2H-chromene-3-carbonitrile], the CC50 [1] was 46 ± 0.2 µM, the CC50 at 24 h ([2]; MRC-5 lung fibroblasts, MRC-5) was greater than 100 µM and the CC50 at 24 h [2, 10] was greater than 100 µM. The CC50 [3] was 57 ± 5 µM, the CC50 [4] was greater than 100 µM and the CC50 [5] was 44 ± 5.5 µM. The ROS generation [6] was “significant increase in ROS generation”, the “effect on ROS” value [7] was “pro-oxidant” and the oxidation peak potential [8] was 0.75 V. The reduction feature potential [8] was −0.95 V and the induction of apoptosis [9] was “No significant induction of apoptosis”.

— publication PMC9786284, “Synthesis and Antiproliferative Effect of Halogenated Coumarin Derivatives” (Molecules, 2022)
